Assay results published in ChEMBL document CHEMBL1136564, “Sordaricin antifungal agents” (2003).
≈ marks a conversion by molar mass, not a printed value. Calls of active or inactive are those of the source. No cut-off for these calls is given here.

What was measured:
Nakaseomyces glabratus = experiment: Minimum inhibitory concentration required to inhibit 90 to 100% visible growth of Candida glabrata; format: functional
[1] = In vitro therapeutic index (calculated as CC50/MIC (Candida albicans)).; format: functional
Candida albicans = experiment: Minimum inhibitory concentration to inhibit 90 to 100% visible growth of Candida albicans; format: functional
HEp-2 [2] = experiment: In vitro cytotoxic concentration against Hep2 cells.; format: functional; settings: Homo sapiens
HEp-2 [3] = experiment: Cytotoxic concentration against Hep2 cells; activation observed, but IC50 could not be determined; format: functional, cell-based; settings: Homo sapiens

SMILES	MIC (Nakaseomyces glabratus)	Therapeutic index [1]	MIC (Candida albicans)	CC50 (HEp-2 [2])	CC50 (HEp-2 [3])
CC(C)C1=CC2CC3(C=O)[C@@H]4CC[C@@H](C)[C@H]4CC2(C(=O)CCC2CCCCC2)[C@]13C(=O)O	> 128 µg/mL	3.6	0.5 µg/mL (≈ 1.13 µM)	1.8 µg/mL (≈ 4.09 µM)	
CCCCCCC(O)C12C[C@@H]3[C@H](C)CC[C@H]3C3(C=O)CC1C=C(C(C)C)[C@@]23C(=O)O (stereo not given in full)	32 µg/mL (≈ 76.8 µM)	0.6	4 µg/mL (≈ 9.6 µM)	2.4 µg/mL (≈ 5.76 µM)	
CC(C)C1=CC2CC3(C=O)[C@@H]4CC[C@@H](C)[C@H]4CC2(C(O)C#CCC2CCCC2)[C@]13C(=O)O (stereo not given in full)	16 µg/mL (≈ 36.5 µM)	14.2	1 µg/mL (≈ 2.28 µM)	14.2 µg/mL (≈ 32.4 µM)	
CC(C)CCCCC(=O)C12C[C@@H]3[C@H](C)CC[C@H]3C3(C=O)CC1C=C(C(C)C)[C@@]23C(=O)O	> 128 µg/mL	5	0.5 µg/mL (≈ 1.17 µM)	2.5 µg/mL (≈ 5.83 µM)	
CC(C)CCCCC(O)C12C[C@@H]3[C@H](C)CC[C@H]3C3(C=O)CC1C=C(C(C)C)[C@@]23C(=O)O (stereo not given in full)	32 µg/mL (≈ 74.3 µM)	1.2	1 µg/mL (≈ 2.32 µM)	1.2 µg/mL (≈ 2.79 µM)	
CC(C)C1=CC2CC3(C=O)[C@@H]4CC[C@@H](C)[C@H]4CC2(C(=O)CC2CCCCC2)[C@]13C(=O)O	1 µg/mL (≈ 2.34 µM)	3.6	0.5 µg/mL (≈ 1.17 µM)	1.8 µg/mL (≈ 4.22 µM)	
CC(C)C1=CC2CC3(C=O)[C@@H]4CC[C@@H](C)[C@H]4CC2(C(O)CCC2CCCCC2)[C@]13C(=O)O (stereo not given in full)	16 µg/mL (≈ 36.1 µM)	3	0.5 µg/mL (≈ 1.13 µM)	1.5 µg/mL (≈ 3.39 µM)	
CC(C)CCC(O)C12C[C@@H]3[C@H](C)CC[C@H]3C3(C=O)CC1C=C(C(C)C)[C@@]23C(=O)O (stereo not given in full)	64 µg/mL (≈ 159 µM)		16 µg/mL (≈ 39.7 µM)		inactive
CC(C)CCC(=O)C12C[C@@H]3[C@H](C)CC[C@H]3C3(C=O)CC1C=C(C(C)C)[C@@]23C(=O)O	1 µg/mL (≈ 2.5 µM)	< 0.02	> 128 µg/mL	2.5 µg/mL (≈ 6.24 µM)	
CC(C)C1=CC2CC3(C=O)[C@@H]4CC[C@@H](C)[C@H]4CC2(C(O)CC2CCCCC2)[C@]13C(=O)O (stereo not given in full)	8 µg/mL (≈ 18.7 µM)	1.6	2 µg/mL (≈ 4.67 µM)	3.1 µg/mL (≈ 7.23 µM)	
CC(C)C1=CC2CC3(C=O)[C@@H]4CC[C@@H](C)[C@H]4CC2(C(O)C#CCC2CCCCC2)[C@]13C(=O)O (stereo not given in full)	4 µg/mL (≈ 8.84 µM)	42.8	0.25 µg/mL (≈ 0.552 µM)	10.7 µg/mL (≈ 23.6 µM)	
CC(C)C1=CC2CC3(C=O)[C@@H]4CC[C@@H](C)[C@H]4CC2(C(=O)C#CCC2CCCC2)[C@]13C(=O)O	0.125 µg/mL (≈ 0.286 µM)	> 15	< 0.06 µg/mL	0.9 µg/mL (≈ 2.06 µM)	
CCCCC#CC(=O)C12C[C@@H]3[C@H](C)CC[C@H]3C3(C=O)CC1C=C(C(C)C)[C@@]23C(=O)O	0.5 µg/mL (≈ 1.22 µM)	> 55	< 0.06 µg/mL	3.3 µg/mL (≈ 8.04 µM)	
CC(C)C1=CC2CC3(C=O)C4CC[C@@H](C)C4CC2(CCOC(=O)CNC(=O)OC(C)(C)C)C13C(=O)O (stereo not given in full)	> 128 µg/mL		128 µg/mL (≈ 254 µM)		
CC(C)C1=CC2CC3(C=O)C4CC[C@@H](C)C4CC2(CCOC(=O)c2ccc([N+](=O)[O-])cc2Cl)C13C(=O)O (stereo not given in full)	> 128 µg/mL		128 µg/mL (≈ 242 µM)		
CC(C)C1=CC2CC3(C=O)C4CC[C@@H](C)C4CC2(CCOC(=O)c2cccc(C#N)c2)C13C(=O)O (stereo not given in full)	> 128 µg/mL		1 µg/mL (≈ 2.1 µM)		
CC(C)C1=CC2CC3(C=O)C4CC[C@@H](C)C4CC2(CCOC(=O)c2ccccc2)C13C(=O)O (stereo not given in full)	> 128 µg/mL		32 µg/mL (≈ 71 µM)		
CC(C)CCC#CC(O)C12C[C@@H]3[C@H](C)CC[C@H]3C3(C=O)CC1C=C(C(C)C)[C@@]23C(=O)O (stereo not given in full)	8 µg/mL (≈ 18.8 µM)	15.8	1 µg/mL (≈ 2.34 µM)	15.8 µg/mL (≈ 37 µM)	
CCCOc1ccc(C(=O)OCCC23CC4C(CC[C@H]4C)C4(C=O)CC2C=C(C(C)C)C43C(=O)O)cc1 (stereo not given in full)	> 128 µg/mL		128 µg/mL (≈ 252 µM)		
CCCCCCC(=O)C12C[C@@H]3[C@H](C)CC[C@H]3C3(C=O)CC1C=C(C(C)C)[C@@]23C(=O)O	4 µg/mL (≈ 9.65 µM)	6	0.25 µg/mL (≈ 0.603 µM)	1.5 µg/mL (≈ 3.62 µM)	

SMILES	MIC (Nakaseomyces glabratus)	Therapeutic index [1]	MIC (Candida albicans)	CC50 (HEp-2 [2])	CC50 (HEp-2 [3])
CC(C)C1=CC2CC3(C=O)[C@@H]4CC[C@@H](C)[C@H]4CC2(C(=O)C#CC(C)(C)C)[C@]13C(=O)O	> 128 µg/mL		> 128 µg/mL		
CC(C)C1=CC2CC3(C=O)C4CC[C@@H](C)C4CC2(CCOC(=O)c2ccc(Cl)cc2)C13C(=O)O (stereo not given in full)	> 128 µg/mL		4 µg/mL (≈ 8.25 µM)		
CC(C)C1=CC2CC3(C=O)C4CC[C@@H](C)C4CC2(CCOC(=O)c2ccc(Cl)nc2)C13C(=O)O (stereo not given in full)	> 128 µg/mL		4 µg/mL (≈ 8.23 µM)		
CC(C)C1=CC2CC3(C=O)C4CC[C@@H](C)C4CC2(CCOC(=O)c2ccc(F)cc2)C13C(=O)O (stereo not given in full)	> 128 µg/mL		4 µg/mL (≈ 8.54 µM)		
CC(C)CCCC#CC(=O)C12C[C@@H]3[C@H](C)CC[C@H]3C3(C=O)CC1C=C(C(C)C)[C@@]23C(=O)O	0.25 µg/mL (≈ 0.57 µM)	> 23.3	< 0.06 µg/mL	1.4 µg/mL (≈ 3.19 µM)	
CCCCC#CC(O)C12C[C@@H]3[C@H](C)CC[C@H]3C3(C=O)CC1C=C(C(C)C)[C@@]23C(=O)O (stereo not given in full)	32 µg/mL (≈ 77.6 µM)	2.3	8 µg/mL (≈ 19.4 µM)	18.3 µg/mL (≈ 44.4 µM)	
CC(C)C1=CC2CC3(C=O)C4CC[C@@H](C)C4CC2(CCOC(=O)[C@@H]2CCC(=O)N2)C13C(=O)O (stereo not given in full)	> 128 µg/mL		> 128 µg/mL		
CCCCCCCCCCCCCCCCC(=O)C12C[C@@H]3[C@H](C)CC[C@H]3C3(C=O)CC1C=C(C(C)C)[C@@]23C(=O)O	> 128 µg/mL		> 128 µg/mL		
CC(C)C1=CC2CC3(C=O)[C@@H]4CC[C@@H](C)[C@H]4CC2(C(O)CCc2ccccc2)[C@]13C(=O)O (stereo not given in full)	> 128 µg/mL		> 128 µg/mL		
CC(=O)CCC(=O)OCCC12CC3C(CC[C@H]3C)C3(C=O)CC1C=C(C(C)C)C32C(=O)O (stereo not given in full)	> 128 µg/mL		8 µg/mL (≈ 18 µM)		
CC(C)C1=CC2CC3(C=O)[C@@H]4CC[C@@H](C)[C@H]4CC2(C(=O)C#CCC2CCCCC2)[C@]13C(=O)O	0.5 µg/mL (≈ 1.11 µM)	> 23.3	< 0.06 µg/mL	1.4 µg/mL (≈ 3.11 µM)	
CC(C)C1=CC2CC3(C=O)C4CC[C@@H](C)C4CC2(CCOC(=O)C2CCCC2)C13C(=O)O (stereo not given in full)	4 µg/mL (≈ 9.04 µM)		0.125 µg/mL (≈ 0.282 µM)		
CC(C)C1=CC2CC3(C=O)[C@@H]4CC[C@@H](C)[C@H]4CC2(C(O)C#CC(C)(C)C)[C@]13C(=O)O (stereo not given in full)	128 µg/mL (≈ 310 µM)		128 µg/mL (≈ 310 µM)		
C=CCCCCC(=O)OCCC12CC3C(CC[C@H]3C)C3(C=O)CC1C=C(C(C)C)C32C(=O)O (stereo not given in full)	8 µg/mL (≈ 17.5 µM)		< 0.06 µg/mL		
CC(C)C1=CC2CC3(C=O)C4CC[C@@H](C)C4CC2(CCOC(=O)[C@H](NC(=O)OC(C)(C)C)c2ccccc2)C13C(=O)O (stereo not given in full)	> 128 µg/mL		4 µg/mL (≈ 6.9 µM)		
CC(C)C1=CC2CC3(C=O)C4CC[C@@H](C)C4CC2(CCOC(=O)C2CCN(C(=O)OC(C)(C)C)CC2)C13C(=O)O (stereo not given in full)	> 128 µg/mL		8 µg/mL (≈ 14.3 µM)		
CC(C)C1=CC2CC3(C=O)[C@@H]4CC[C@@H](C)[C@H]4CC2(C(=O)C#Cc2ccccc2)[C@]13C(=O)O	16 µg/mL (≈ 37.2 µM)	0.09	> 128 µg/mL	> 12 µg/mL	
CC(C)C1=CC2CC3(C=O)C4CC[C@@H](C)C4CC2(CCOC(=O)c2cc[n+]([O-])cc2)C13C(=O)O (stereo not given in full)	> 128 µg/mL		> 128 µg/mL		
CC(C)C1=CC2CC3(C=O)C4CC[C@@H](C)C4CC2(CCOC(=O)Cc2ccc(Br)o2)C13C(=O)O (stereo not given in full)	64 µg/mL (≈ 120 µM)		2 µg/mL (≈ 3.75 µM)		
